# Reference: patent US11479805B2, “Combinatorial single molecule analysis of chromatin” (The General Hospital Corporation, priority 2015, dated 2022)
# Legend:
# [1] = system: recombinant unmodified nucleosomes; assay: Single-molecule antibody binding to recombinant unmodified nucleosomes; settings: monitored over time; FIG. 8A
# Description: FIG. 8A-8B. Low background and high specificity of antibody binding. (A) Recombinant unmodified nucleosomes were prepared as previously described (91), and then ligated to biotinylated, fluorescent adaptors as in FIG. 1A. Binding of fluorescently-labeled H3K27me3 antibodies was monitored over time. […] For comparison, also shown are images of H3K27me3 antibody binding to nucleosomes prepared from HEK293 cells. (B) Western-blot analysis of labeled H3K27me3 peptide (TAMRA, green) bound by H3K27me3 antibodies (Alexa647, red). Fluorescent signal on membrane was visualized using a Typhoon trio+imager (Amersham Biosciences).
# Applicants imaged millions of nucleosomes and decoded their modification state. Images are analyzed with Cell Profiler software. […] In contrast, when Applicants treated cells with histone deacetylase inhibitors (HDACi), the fraction of acetylated nucleosomes increased to 7% (FIG. 1C, 1D). Importantly, when Applicants repeated the analysis with recombinant unmodified nucleosomes, just 0.1% of nucleosomes scored (FIG. 1E, 8A). […]
# (§1) All experiments were performed on a total internal reflection (TIRF) microscope with two lasers, 532 nm/75 mW and 640 nm/40 mW, for fluorescence excitation (Compass 215M, Cube-40C, Coherent). […]
# [2] = system: control peptides and singly modified peptides; assay: Antibody specificity peptide array (dot-blot assay); format: binding; settings: FIG. 9
# Description: FIG. 9A-9B. Peptide array confirms high antibody specificity (A-B) Reactivity of H3K27me3 antibody (A) or H3K4me3 antibody (B) with control peptides and singly modified peptides.
# To test for antibody specificity, Applicants used a peptide array with unlabeled antibodies (the same lots of antibodies that were labeled by Cell Signaling and used for the imaging) according to the following protocol: array is immersed in 4 ml blocking solution (TBST containing 5% non-fat dried milk) for 4 hours at room temperature. Next, array is washed 3 times with TBST, and primary antibody is added (diluted in TBST 1:25,000). Antibody is incubated over night at 4° C. on a rotor. Then the array is washed 3 times in TBST and the secondary antibody (Active Motif, 100612) is added for 1 hour at room temperature. Array is washed again 3 times in TBST and the signal is detected by FlourChemQ.
# nucleosomes from ESCs = assay: Time-lapse TIRF imaging of antibody binding and dissociation on nucleosomes from ESCs; set-up: species or system Mouse; settings: images every 15 minutes, FIG. 7B-C
# Description: FIG. 7A-7F. Time-lapse images detect repeated antibody binding and dissociation events. (A) Mono-nucleosomes were extracted from HEK293 cells, labeled and distributed on the surface as described in FIG. 1A. […] Shown are images taken at 15, 30 and 45 minutes after addition of antibodies. (B-F) Nucleosomes from ESCs were distributed on the surface and incubated with antibodies targeting H3K27me3 (B, D, F) or H3K4me3 (C, E). Time lapse images were taken every 15 minutes. A total of 10,000 individual binding events were analyzed for each antibody. (B-C) Number of binding events detected at each time point. Equilibrium of binding and dissociation of antibodies is achieved at 45 minutes for H3K27me3, and 75 minutes for H3K4me3. Later images show mild reduction in signal due to photo bleaching. (D-E) For each nucleosome, the number of binding events by antibody was calculated in a total of 8 images taken during the time course of the experiment (30-135 minutes). Graph depicts a histogram of the number of images in which each nucleosome is bound by the antibody. Due to repeated binding and dissociation events, most of the nucleosomes are bound more than once. […]
# as §1
substance,measurement,setting,value
"H3K27me3 antibody: Tri-Methyl-Histone H3 (Lys27) (C36B11) Rabbit mAb (Alexa Fluor 647 Conjugate), Cell Signaling #12158",binding events on recombinant unmodified nucleosomes,[1],Very few binding events were detected
same,reactivity with control peptides and singly modified peptides (target specificity),[2],very high target specificity and low background
same,time at which equilibrium of binding and dissociation of antibodies is achieved,nucleosomes from ESCs,45 min
